Consider 5 molecules from US20140054163A1, “METHODS FOR REACTING CYSTEINE RESIDUES IN PEPTIDES AND PROTEINS” (University of George Risearch Foundation, Inc., priority 2012, published 2014).

In data set [1] the target is T1, Papain from papaya latex (Carica papaya, UniProt P00784).
T1 construct: from tissue; host or cells: papaya latex
T1 sequence (P00784 134-345): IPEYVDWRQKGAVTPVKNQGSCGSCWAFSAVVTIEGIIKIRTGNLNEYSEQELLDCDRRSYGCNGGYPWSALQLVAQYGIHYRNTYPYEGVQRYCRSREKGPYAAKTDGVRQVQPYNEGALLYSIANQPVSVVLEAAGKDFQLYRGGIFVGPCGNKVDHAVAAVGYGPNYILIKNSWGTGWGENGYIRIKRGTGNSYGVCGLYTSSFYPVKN
Put plainly: Photochemical inhibition of papain activity by NQMP-TEG (L-BAPNA hydrolysis rate). Format: biochemical. The note with it: for Relative activity: PBS. The procedure:
(§1) Papain was activated by incubation the enzyme with 100-40 fold excess of free cysteine for 45 minutes in PBS solution. The concentration of the papain in the stock solution was determined by its […] at 280 nm (s=57600 M^−1 cm^−1) (Pace et. al., Protein Sci. 1995, 4:2411-2423). The activity of the protease was measured using N-α-benzoyl-L-arginine-p-nitroanilide (L-BAPNA). […] The formation of the latter can be followed by the rise of characteristic absorbance at 410 nm (ε=9800). Water-soluble NQMP-TEG (FIG. 13) was employed for inhibition experiments.
A PBS solution containing 1.7 μM of papain, 80 μM of cysteine and variable amounts of NQMP-TEG was irradiated for 2 minutes with 350 nm fluorescent lamps. A stock solution of BAPNA was then added to a photolysate to achieve 800 μM concentration of the substrate and rate of hydrolysis was measured (Table 5, FIG. 14).
A PBS solution containing 0.91 μM of papain, 44 μM of cysteine and 109 μM of NQMP-TEG was irradiated for 2, 3 or 4 minutes with 350 nm fluorescent lamps. A stock solution of BAPNA was then added to a photolysate to achieve 200 μM concentration of the substrate and rate of hydrolysis was measured (Table 6, FIG. 15).

For data set [2], the target named is T1, Papain from papaya latex. In words: Photochemical restoration (re-activation) of NQMP-inhibited papain activity. Format: biochemical. The note with it: for Papain Activity: photolysate with inhibited papain, NQMP-TEG, cysteine plus 2-(2-(vinyloxy)ethoxy)ethanol equal to initial NQMP-TEG. The procedure: as §1
A sample of deactivated papain was prepared as described above. The protein was separated from low molecular weight compounds using gel filtration (Sephadex PD-10 column). To check for the completeness of inhibition an excess of cysteine was added to a PBS solution of the inhibited papain and incubated for 45 minutes. […] This solution was then re-irradiated with 350 nm fluorescent lamps for 15 minutes.
Alternatively, re-activation of papain was achieved without isolation of inhibited enzyme. Ethyl vinyl ether derivative, 2-(2-(vinyloxy)ethoxy)ethanol, was added to a photolysate containing inhibited papain, NQMP-TEG, and cysteine in PBS solution. The amount of vinyl ether added was equal to the initial amount of NQMP-TEG.

Data set [3] can be described thus: Photochemical stability on irradiation in PBS, HPLC analysis. Format: physicochemical. Particulars: 0.1 mM PBS solutions irradiated separately for 12 minutes, 300 and 350 nm fluorescent lamps. The procedure: It is important to note that peptide 4 and NQMP-TEG (1c) are photochemically stable under these conditions. […] Obviously, NQMP 1c still forms oNQM 2c but in the absence of thiols the latter rapidly undergoes hydration back to starting materials.
0.1 mM PBS solutions of NQMP-TEG (2c) and peptide 4 were irradiated separately for 12 minutes using both 300 and 350 nm fluorescent lamps.

Data set [4] in a line: Cysteine specificity of NQMP photo-click reaction, peptides lacking free cysteine. Particulars: irradiation of peptides 6 and 7 with 4 to 12 equivalents of NQMP-TEG, HPLC analysis. The procedure:
To test the cysteine specificity of NQMP photo-click reaction, two analogs of peptide 4 containing the same amino acid sequence but lacking free cysteine were prepared. In nonapeptide 6 cysteine residue was replaced with methionine, while the thiol group in 4 was converted into disulfide bond by oxidative dimerization to form oligopeptide 7. […] These experiments show the high specificity of addition of photochemically generated oNQM to cysteine thiol group.
0.1 mM PBS solutions of peptides 4, 6, and 7 were irradiated with 300 or 350 nm fluorescent lamps in the presence of variable amounts of NQMP-TEG (2c, 0.1-0.4 mM). Composition of the photolysates was analyzed using HPLC (FIG. 17). Peptide 4-NQMP-TEG conjugate (5) was isolated using semi-prep C-18 HPLC column and characterized by ESI-HRMS (FIG. 18). The concentration of labeled peptide 5 was determined by UV spectroscopy using characteristic 330 nm band of NQMP chromophore. This solution was then used in calibration of HPLC instruments.

A short description of data set [5]: Aqueous solubility of NQMP derivatives. Particulars: wholly aqueous solutions.

Take “8-TEG-3-(hydroxymethyl)naphthalen-2-ol [NQMP-TEG]”: the Relative activity in data set [1] (100 μM NQMP-TEG, 1.7 μM papain, 80 μM cysteine, 2 minutes irradiation at 350 nm, 800 μM BAPNA) was 65%; in data set [1] (109 μM NQMP-TEG, 0.91 μM papain, 44 μM cysteine, 2 minutes irradiation at 350 nm, 200 μM BAPNA), 52%; in data set [1] (109 μM NQMP-TEG, 0.91 μM papain, 44 μM cysteine, 3 minutes irradiation at 350 nm, 200 μM BAPNA) it was 27%; in data set [1] (109 μM NQMP-TEG, 0.91 μM papain, 44 μM cysteine, 4 minutes irradiation at 350 nm, 200 μM BAPNA), 0%; in data set [1] (109 μM NQMP-TEG, 0.91 μM papain, 44 μM cysteine, irradiation time 0 minutes, 200 μM BAPNA), 100%; in data set [1] (150 μM NQMP-TEG, 1.7 μM papain, 80 μM cysteine, 2 minutes irradiation at 350 nm, 800 μM BAPNA), 48%. Moreover, the Relative activity turned out to be 43% in data set [1] (200 μM NQMP-TEG, 1.7 μM papain, 80 μM cysteine, 2 minutes irradiation at 350 nm, 800 μM BAPNA); 27% in data set [1] (250 μM NQMP-TEG, 1.7 μM papain, 80 μM cysteine, 2 minutes irradiation at 350 nm, 800 μM BAPNA); 17% in data set [1] (300 μM NQMP-TEG, 1.7 μM papain, 80 μM cysteine, 2 minutes irradiation at 350 nm, 800 μM BAPNA); 0% in data set [1] (400 μM NQMP-TEG, 1.7 μM papain, 80 μM cysteine, 2 minutes irradiation at 350 nm, 800 μM BAPNA). Also, the “Concentration required to completely inhibit the activity of Papain” value in data set [1] (2 minutes of irradiation at 350 nm, 1.7 μM papain, 80 μM cysteine) was “about 350 μM”. Further, the “Papain Activity” value was found to be 0% in data set [2] (350 nm irradiation 0 minutes); 28% in data set [2] (350 nm irradiation 3 minutes); 40% in data set [2] (350 nm irradiation 4 minutes); 47% in data set [2] (350 nm irradiation 5 minutes); 58% in data set [2] (350 nm irradiation 7 minutes); 76% in data set [2] (350 nm irradiation 8 minutes). Further, the “Photochemical stability (decomposition or losses by HPLC)” value in data set [3] is reported as “No decomposition or losses of materials were detected”. Besides, the “Labeling of peptides lacking free cysteine (selectivity)” value in data set [4] is reported as “produced no labeled products”. In addition, in data set [5], the Aqueous solubility entry is on record as “freely soluble in wholly aqueous solutions up to millimolar concentrations”.

Consider `OCc1cc2ccccc2cc1O` [1a, 3-hydroxy-2-naphthalenemethanol], for which, in data set [5], the Aqueous solubility entry is on record as “rather low aqueous solubility”.

Turning to `OCc1cc2cccc(O)c2cc1O` [1b, 6-(hydroxymethyl)naphthalene-1,7-diol], the Aqueous solubility result in data set [5] is “rather low aqueous solubility”.

As for “Ac-Cys-Lys-Tyr-Trp-Gly-Arg-Asp-Ser-NH2 (Ac-CKYWGRDS-NH2) [compound 4]”, in data set [3], the “Photochemical stability (decomposition or losses by HPLC)” value is on record as “No decomposition or losses of materials were detected”.

B1: inhibited papain: papain deactivated by irradiation with NQMP-TEG; a single NQMP-TEG unit added as thioether (conjugate, UniProt P00784 134-345, looked up)
Papain: T1 sequence (P00784 134-345)
modifications: NQMP-TEG thioether adduct, inactivated
With B1, the “Protease activity (L-BAPNA cleavage) after incubation with excess cysteine” value in data set [2] (gel-filtered inhibited papain in PBS, excess of cysteine, 45 minutes, no re-irradiation) is listed as “does not cleave L-BAPNA”. Further, the “Restoration of papain activity relative to wild type papain” value in data set [2] (gel-filtered inhibited papain, no NQMP reagent, re-irradiated with 350 nm lamps for 15 minutes) is recorded as 85-92%.
